Several values for one entry are separate records, joined by “and”; a condition that tells them apart may be missing. Equal values may be shown once.
Key:
[1] = biological target: T1, Alpha-2C adrenergic receptor (Homo sapiens, UniProt P18825); type: functional
T1 sequence (P18825 whole entry): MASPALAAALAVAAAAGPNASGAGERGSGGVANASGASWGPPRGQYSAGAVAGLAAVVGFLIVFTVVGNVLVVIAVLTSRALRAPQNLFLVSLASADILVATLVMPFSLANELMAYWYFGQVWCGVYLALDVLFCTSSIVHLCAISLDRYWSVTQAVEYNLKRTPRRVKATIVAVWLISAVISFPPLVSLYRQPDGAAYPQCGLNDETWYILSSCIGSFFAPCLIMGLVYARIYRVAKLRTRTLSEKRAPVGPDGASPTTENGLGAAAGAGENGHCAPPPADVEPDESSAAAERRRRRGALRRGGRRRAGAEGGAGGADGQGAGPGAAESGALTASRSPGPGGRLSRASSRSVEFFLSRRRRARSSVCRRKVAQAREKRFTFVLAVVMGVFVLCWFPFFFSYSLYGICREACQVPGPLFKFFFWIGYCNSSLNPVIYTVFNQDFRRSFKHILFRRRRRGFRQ

[2] = biological target: Cannabinoid receptor 1 (Homo sapiens, UniProt P21554); type: functional, cell-based
[3] = biological target: T2, Muscarinic acetylcholine receptor M2 (Homo sapiens, UniProt P08172); type: functional, cell-based
T2 sequence (P08172 whole entry): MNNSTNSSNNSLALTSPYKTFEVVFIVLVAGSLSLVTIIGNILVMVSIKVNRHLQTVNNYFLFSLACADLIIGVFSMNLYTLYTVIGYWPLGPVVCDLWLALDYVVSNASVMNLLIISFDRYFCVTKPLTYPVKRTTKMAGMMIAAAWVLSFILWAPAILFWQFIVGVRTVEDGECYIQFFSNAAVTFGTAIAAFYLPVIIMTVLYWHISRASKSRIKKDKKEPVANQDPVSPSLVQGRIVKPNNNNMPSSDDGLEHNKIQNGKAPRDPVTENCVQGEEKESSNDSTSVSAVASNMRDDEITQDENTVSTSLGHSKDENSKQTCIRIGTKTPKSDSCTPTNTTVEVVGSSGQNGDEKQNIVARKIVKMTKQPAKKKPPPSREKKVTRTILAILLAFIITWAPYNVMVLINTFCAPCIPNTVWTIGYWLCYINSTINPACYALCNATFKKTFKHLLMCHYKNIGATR

[4] = biological target: Glutamate receptor ionotropic, NMDA 1 (Rattus norvegicus, UniProt P35439)
[5] = biological target: T3, Adenosine receptor A1 (Homo sapiens, UniProt P30542)
T3 sequence (P30542 whole entry): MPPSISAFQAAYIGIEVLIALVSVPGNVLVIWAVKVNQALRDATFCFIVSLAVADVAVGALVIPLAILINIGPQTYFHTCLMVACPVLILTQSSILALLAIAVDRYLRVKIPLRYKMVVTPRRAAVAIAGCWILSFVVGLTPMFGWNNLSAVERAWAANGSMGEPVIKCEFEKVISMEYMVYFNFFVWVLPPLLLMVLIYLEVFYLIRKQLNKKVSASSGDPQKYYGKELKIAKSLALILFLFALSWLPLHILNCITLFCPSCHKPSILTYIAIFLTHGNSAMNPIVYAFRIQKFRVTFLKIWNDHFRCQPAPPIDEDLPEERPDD

[6] = biological target: Melanocortin receptor 3 (Homo sapiens, UniProt P41968)
[7] = biological target: T4, Adenosine receptor A3 (Homo sapiens, UniProt P0DMS8)
T4 sequence (P0DMS8 whole entry): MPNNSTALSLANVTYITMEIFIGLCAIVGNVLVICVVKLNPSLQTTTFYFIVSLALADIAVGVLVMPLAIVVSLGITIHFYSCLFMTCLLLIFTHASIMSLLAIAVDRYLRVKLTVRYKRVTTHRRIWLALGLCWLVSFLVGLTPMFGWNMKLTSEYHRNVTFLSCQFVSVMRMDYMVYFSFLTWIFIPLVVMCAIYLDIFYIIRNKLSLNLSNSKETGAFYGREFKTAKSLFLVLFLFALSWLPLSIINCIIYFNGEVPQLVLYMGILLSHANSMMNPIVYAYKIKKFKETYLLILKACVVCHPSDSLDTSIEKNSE

[8] = biological target: Voltage-gated inwardly rectifying potassium channel KCNH2 (Homo sapiens, UniProt Q12809); type: functional
[9] = biological target: T5, Type-1 angiotensin II receptor (Homo sapiens, UniProt P30556)
T5 sequence (P30556 whole entry): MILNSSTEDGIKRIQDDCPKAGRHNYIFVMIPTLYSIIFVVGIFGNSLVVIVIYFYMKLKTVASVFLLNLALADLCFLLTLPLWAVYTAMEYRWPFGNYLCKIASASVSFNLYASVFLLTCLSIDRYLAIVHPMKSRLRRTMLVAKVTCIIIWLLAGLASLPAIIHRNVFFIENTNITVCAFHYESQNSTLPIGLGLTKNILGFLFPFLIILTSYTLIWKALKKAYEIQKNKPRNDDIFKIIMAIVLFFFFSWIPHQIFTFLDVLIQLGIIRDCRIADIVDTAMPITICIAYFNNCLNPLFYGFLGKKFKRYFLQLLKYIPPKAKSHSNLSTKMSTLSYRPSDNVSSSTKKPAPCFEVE

[10] = biological target: T6, Equilibrative nucleoside transporter 1 (Homo sapiens, UniProt Q99808)
T6 sequence (Q99808 whole entry): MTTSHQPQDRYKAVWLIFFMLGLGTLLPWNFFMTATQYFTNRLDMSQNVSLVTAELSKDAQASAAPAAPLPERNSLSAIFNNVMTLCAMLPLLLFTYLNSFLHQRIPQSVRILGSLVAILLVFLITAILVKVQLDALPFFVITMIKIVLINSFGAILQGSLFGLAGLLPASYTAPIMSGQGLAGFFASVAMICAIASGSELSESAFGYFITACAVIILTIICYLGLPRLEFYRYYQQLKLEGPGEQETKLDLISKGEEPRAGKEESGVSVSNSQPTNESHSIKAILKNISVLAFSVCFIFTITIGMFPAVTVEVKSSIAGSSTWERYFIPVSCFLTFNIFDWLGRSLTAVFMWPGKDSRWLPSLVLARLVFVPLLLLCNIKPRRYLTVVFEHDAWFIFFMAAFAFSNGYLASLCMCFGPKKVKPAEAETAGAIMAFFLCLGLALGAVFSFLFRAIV

[11] = biological target: Sodium-dependent noradrenaline transporter (Homo sapiens, UniProt P23975)
Further: assay procedure not described here.

Chain of Voltage-gated inwardly rectifying potassium channel KCNH2 (Q12809 whole entry): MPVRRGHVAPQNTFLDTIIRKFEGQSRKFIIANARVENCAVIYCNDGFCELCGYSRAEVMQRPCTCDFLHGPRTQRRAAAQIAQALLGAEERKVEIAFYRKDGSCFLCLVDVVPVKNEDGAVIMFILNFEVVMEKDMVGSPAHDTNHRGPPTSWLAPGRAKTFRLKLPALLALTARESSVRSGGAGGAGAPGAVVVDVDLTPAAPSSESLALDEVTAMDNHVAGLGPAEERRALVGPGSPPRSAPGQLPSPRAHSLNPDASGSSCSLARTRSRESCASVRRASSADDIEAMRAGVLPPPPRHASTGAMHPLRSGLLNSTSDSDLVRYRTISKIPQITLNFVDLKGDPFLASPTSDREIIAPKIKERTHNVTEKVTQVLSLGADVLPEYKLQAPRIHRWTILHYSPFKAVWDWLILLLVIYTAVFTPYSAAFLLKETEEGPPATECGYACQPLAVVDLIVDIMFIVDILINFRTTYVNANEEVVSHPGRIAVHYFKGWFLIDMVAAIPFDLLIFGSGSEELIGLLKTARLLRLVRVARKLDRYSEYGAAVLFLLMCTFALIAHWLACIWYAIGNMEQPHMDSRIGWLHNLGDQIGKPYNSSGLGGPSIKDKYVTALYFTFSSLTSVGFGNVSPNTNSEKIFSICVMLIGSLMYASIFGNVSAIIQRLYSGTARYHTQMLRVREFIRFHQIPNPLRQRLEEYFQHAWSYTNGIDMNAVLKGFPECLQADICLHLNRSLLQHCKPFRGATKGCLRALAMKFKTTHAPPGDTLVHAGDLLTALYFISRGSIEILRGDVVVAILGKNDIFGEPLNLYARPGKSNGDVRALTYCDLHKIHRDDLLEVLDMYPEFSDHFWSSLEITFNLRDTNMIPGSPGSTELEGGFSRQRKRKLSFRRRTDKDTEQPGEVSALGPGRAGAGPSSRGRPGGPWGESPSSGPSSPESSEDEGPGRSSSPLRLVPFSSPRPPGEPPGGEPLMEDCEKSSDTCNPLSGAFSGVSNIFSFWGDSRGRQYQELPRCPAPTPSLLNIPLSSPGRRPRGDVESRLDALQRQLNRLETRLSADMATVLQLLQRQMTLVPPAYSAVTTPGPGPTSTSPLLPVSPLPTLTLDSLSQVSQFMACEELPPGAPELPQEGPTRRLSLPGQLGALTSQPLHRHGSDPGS
Chain of Melanocortin receptor 3 (P41968 whole entry): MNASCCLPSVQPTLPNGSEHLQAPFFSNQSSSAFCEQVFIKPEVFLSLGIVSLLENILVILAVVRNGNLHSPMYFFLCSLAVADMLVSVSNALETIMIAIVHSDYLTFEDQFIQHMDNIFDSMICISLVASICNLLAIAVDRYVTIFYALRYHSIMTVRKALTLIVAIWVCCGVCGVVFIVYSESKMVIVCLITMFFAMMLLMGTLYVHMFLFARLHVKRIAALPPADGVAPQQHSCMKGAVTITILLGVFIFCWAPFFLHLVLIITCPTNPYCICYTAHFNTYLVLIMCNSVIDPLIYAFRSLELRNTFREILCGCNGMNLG
Chain of Sodium-dependent noradrenaline transporter (P23975 whole entry): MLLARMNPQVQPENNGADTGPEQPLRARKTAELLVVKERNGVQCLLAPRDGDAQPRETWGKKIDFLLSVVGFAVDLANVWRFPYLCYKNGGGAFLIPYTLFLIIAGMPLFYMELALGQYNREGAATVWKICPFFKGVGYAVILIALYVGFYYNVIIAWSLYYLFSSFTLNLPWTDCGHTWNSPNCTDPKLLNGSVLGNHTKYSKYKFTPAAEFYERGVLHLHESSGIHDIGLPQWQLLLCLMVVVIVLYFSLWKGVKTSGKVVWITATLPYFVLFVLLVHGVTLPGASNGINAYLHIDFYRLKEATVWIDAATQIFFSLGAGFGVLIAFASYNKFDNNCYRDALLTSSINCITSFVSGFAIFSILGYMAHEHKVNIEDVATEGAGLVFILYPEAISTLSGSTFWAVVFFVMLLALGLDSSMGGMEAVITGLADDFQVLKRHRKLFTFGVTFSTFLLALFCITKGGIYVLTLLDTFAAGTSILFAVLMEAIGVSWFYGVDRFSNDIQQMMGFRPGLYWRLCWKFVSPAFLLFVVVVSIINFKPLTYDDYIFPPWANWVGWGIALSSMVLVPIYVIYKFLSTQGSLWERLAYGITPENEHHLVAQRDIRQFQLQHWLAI
Chain of Cannabinoid receptor 1 (P21554 whole entry): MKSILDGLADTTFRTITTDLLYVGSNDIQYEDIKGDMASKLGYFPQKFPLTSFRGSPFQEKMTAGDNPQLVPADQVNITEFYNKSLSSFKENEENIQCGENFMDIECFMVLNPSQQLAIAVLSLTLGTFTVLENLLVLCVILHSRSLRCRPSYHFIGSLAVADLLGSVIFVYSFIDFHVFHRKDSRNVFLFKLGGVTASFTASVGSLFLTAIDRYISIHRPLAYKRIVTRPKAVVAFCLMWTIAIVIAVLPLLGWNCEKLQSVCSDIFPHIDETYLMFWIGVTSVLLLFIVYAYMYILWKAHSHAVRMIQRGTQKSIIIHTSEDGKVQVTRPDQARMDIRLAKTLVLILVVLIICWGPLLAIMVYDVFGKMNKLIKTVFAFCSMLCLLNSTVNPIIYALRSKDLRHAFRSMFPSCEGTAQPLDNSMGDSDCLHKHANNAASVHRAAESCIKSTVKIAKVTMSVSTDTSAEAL

For `CCOC(=O)C1=C(C)NC(C)=C(C(=O)OC)C1c1cccc([N+](=O)[O-])c1` (configuration not stated) [NITRENDIPINE], the AC50 [1] was greater than 10 µM, the AC50 [2] was 22 µM and the AC50 [3] was greater than 10 µM. It also gave an AC50 [4] greater than 10 µM, an AC50 [5] greater than 30 µM and an AC50 [6] greater than 30 µM. The AC50 [7] was greater than 30 µM, the AC50 [8] was greater than 30 µM and the AC50 [9] was greater than 30 µM. It also gave an AC50 [10] of 15.9 µM and an AC50 [11] greater than 30 µM.
`C#C[C@]1(OC(C)=O)CC[C@H]2[C@@H]3CCC4=C/C(=N/O)CC[C@@H]4[C@H]3CC[C@@]21CC` [NORGESTIMATE] gave an AC50 [1] greater than 30 µM, an AC50 [2] greater than 30 µM and an AC50 [3] greater than 30 µM. For the same molecule, the AC50 [4] was greater than 30 µM, the AC50 [5] was greater than 30 µM and the AC50 [6] was greater than 30 µM. The AC50 [7] was 11 µM, the AC50 [8] was greater than 30 µM and the AC50 [9] was 22 µM. It also gave an AC50 [10] greater than 30 µM and an AC50 [11] of 28 µM.
Work on `Cc1noc(NS(=O)(=O)c2ccc(N)cc2)c1C` [SULFISOXAZOLE] yielded an AC50 [1] greater than 10 µM, an AC50 [2] greater than 30 µM and an AC50 [3] greater than 10 µM. For the same molecule, the AC50 [4] was greater than 10 µM, the AC50 [5] was greater than 10 µM and the AC50 [6] was greater than 10 µM. The AC50 [7] was greater than 10 µM, the AC50 [8] was greater than 30 µM and the AC50 [9] was greater than 10 µM. It also gave an AC50 [10] greater than 10 µM and an AC50 [11] greater than 10 µM.
With `CC(C)(C)C(=O)OCC(=O)[C@H]1CC[C@H]2[C@@H]3CCC4=CC(=O)CC[C@]4(C)[C@H]3CC[C@]12C` [DESOXYCORTICOSTERONE PIVALATE] the AC50 [1] was greater than 10 µM, the AC50 [2] was greater than 30 µM and the AC50 [3] was greater than 10 µM. The AC50 [4] was greater than 10 µM, the AC50 [5] was greater than 10 µM and the AC50 [6] was greater than 10 µM. It also gave an AC50 [7] greater than 10 µM, an AC50 [8] greater than 30 µM and an AC50 [9] greater than 10 µM. For the same molecule, the AC50 [10] was greater than 10 µM and the AC50 [11] was greater than 10 µM.
Molecule `C[C@]12CCC(=O)C(O)=C1CC[C@@H]1[C@@H]2CC[C@]2(C)C(=O)CC[C@@H]12` [FORMESTANE] has an AC50 [1] greater than 30 µM, an AC50 [2] greater than 30 µM and an AC50 [3] greater than 30 µM. For the same molecule, the AC50 [4] was greater than 30 µM, the AC50 [5] was greater than 30 µM and the AC50 [6] was greater than 30 µM. For the same molecule, the AC50 [7] was greater than 30 µM, the AC50 [8] was greater than 30 µM and the AC50 [9] was greater than 30 µM. It also gave an AC50 [10] greater than 30 µM and an AC50 [11] greater than 30 µM.
In the case of `CCCC(CCC)C(N)=O` [VALPROMIDE], the AC50 [1] is reported as greater than 10 µM, the AC50 [2] is reported as greater than 30 µM and the AC50 [3] is reported as greater than 10 µM. It also gave an AC50 [4] greater than 10 µM, an AC50 [5] greater than 30 µM and an AC50 [6] greater than 30 µM. It also gave an AC50 [7] greater than 30 µM, an AC50 [8] greater than 30 µM and an AC50 [9] greater than 30 µM. The AC50 [10] was greater than 30 µM and the AC50 [11] was greater than 30 µM.
In the case of `C[C@H](Cc1ccc(O)c(O)c1)[C@@H](C)Cc1ccc(O)c(O)c1` [MASOPROCOL], the AC50 [1] is reported as greater than 30 µM, the AC50 [2] is reported as greater than 30 µM and the AC50 [3] is reported as greater than 30 µM. The AC50 [4] was greater than 10 µM, the AC50 [5] was greater than 30 µM and the AC50 [6] was greater than 30 µM. For the same molecule, the AC50 [7] was 5.4 µM and 4.7 µM and 4.1 µM, the AC50 [8] was greater than 30 µM and the AC50 [9] was greater than 10 µM. For the same molecule, the AC50 [10] was greater than 30 µM and the AC50 [11] was 20.6 µM and 20 µM (2×).

Reference: ChEMBL document CHEMBL5291721, “A preclinical secondary pharmacology resource illuminates target-adverse drug reaction associations of marketed drugs” (Nat Commun, 2023)
